Holding throughout (assay type): nucleic-acid assay
The subject of experiment [1] is Nucleic Acid. Briefly: Binding affinity to Schizosaccharomyces pombe Thiolated Lys-tRNA using 32P-labelled probe by PAGE analysis.
Experiment [2] relates to Nucleic Acid. Briefly: Binding affinity to Schizosaccharomyces pombe Non-thiolated Met-tRNA using 32P-labelled probe by PAGE analysis.
For experiment [3], the system named is Nucleic Acid. As to the kind of experiment: Binding affinity to ctu1-deficient Schizosaccharomyces pombe Lys-tRNA using 32P-labelled probe by PAGE analysis.

Calls of active or inactive are those of the source. The rule behind the calls is not given here.

1 substance from ChEMBL document CHEMBL1921713, “A simple synthesis of APM ([p-(N-acrylamino)-phenyl]mercuric chloride), a useful tool for the analysis of thiolated biomolecules” (Bioorg Med Chem Lett, 2011) can be followed below.

For the substance “[p-(N-acrylamino)-phenyl]mercuric chloride”, the outcome in the experiment with Nucleic Acid [1] was Active. Further, the outcome with Nucleic Acid [2] and in the experiment with Nucleic Acid [3] was inactive.
